# Biological target: T1, XIAP BIR-3 (Homo sapiens, UniProt P98170)
# T1 construct: 40 nM of the BIR3 for 15 min at RT
# Test: Fluorescence polarization binding to XIAP BIR-3 (competition with AbuRPF-K(5-Fam)-NH2)
# Conditions: XIAP BIR-3 (default where cell does not indicate otherwise); reported as range class
# Procedure: The binding affinities of the compounds are reported as a Kd value. Briefly, various concentrations of test peptides were mixed with 5 nM of the fluorescently labeled peptide (i.e., a mutated N-terminal Smac peptide—AbuRPF-K(5-Fam)-NH2) and 40 nM of the BIR3 for 15 min at RT in […] of 0.1M Potassium Phosphate buffer, pH 7.5 containing […] bovine g-globulin. Following incubation, the polarization values (mP) were measured on a Victor2V (available from PerkinElmer Life Sciences) using a 485 nm excitation filter and a 520 nm emission filter. The reported Kd values are supplied as ranges (A=<0.1 μM, B=0.1 μM to C=>1 μM to 10 μM, D=>10 μM) and, unless otherwise indicated, are the Kd for XIAP BIR-3.
# T1 sequence (P98170 241-356 limits assumed): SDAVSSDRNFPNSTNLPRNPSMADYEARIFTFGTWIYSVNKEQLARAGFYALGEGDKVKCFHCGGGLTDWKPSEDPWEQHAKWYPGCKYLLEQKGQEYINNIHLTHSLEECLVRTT
row,SMILES,Kd
1,"CN[C@@H](C)C(=O)N[C@H](C(=O)N1CC[C@H](O)[C@H]1Cc1c[nH]c2cc(F)ccc12)[C@@H](C)OC (relative stereo) [RR, trans-2R—[N-{1-[2-(6-Fluoro-1H-indol-3-ylmethyl)-3-hydroxy-pyrrolidine-1-carbonyl]-2-methoxy-propyl}]-2-methylamino-propionamide]",< 100 nM
2,CCN[C@@H](C)C(=O)N[C@H](C(=O)N1CC[C@H](OC)[C@H]1Cc1cn(C)c2cc(F)ccc12)[C@@H](C)OC [A′],> 100 nM
3,CN[C@@H](C)C(=O)N[C@H](C(=O)N1CC[C@@H](O)[C@H]1Cc1c(-c2ccc(F)cc2)[nH]c2ccccc12)C(C)C [BBB],< 100 nM
4,CC[C@H](NC)C(=O)N[C@H](C(=O)N1C[C@@H](O)C[C@H]1Cc1c[nH]c2ncccc12)C1CCCCC1 [B],< 100 nM
5,CN[C@@H](C)C(=O)N[C@H](C(=O)N1CC[C@H](OC)[C@H]1Cc1cn(C)c2cc(F)ccc12)[C@@H](C)OC [B′],< 100 nM
6,"CN[C@@H](C)C(=O)N[C@H](C(=O)N1C[C@@H](O)C[C@H]1Cc1c[nH]c2ncccc12)[C@@H](C)OC [Compound A, N-{1-[4-Hydroxy-2-(1H-pyrrolo[2,3-b]pyridin-3-ylmethyl)-pyrrolidine-1-carbonyl]-2-methoxy-propyl}-2-methylamino-propionamide]",< 100 nM
7,CCN[C@@H](CC)C(=O)N[C@H](C(=O)N1CCC[C@H]1Cc1c[nH]c2c1ccc[n+]2[O-])[C@@H](C)OC [Compound R],> 100 nM
8,CN[C@@H](C)C(=O)N[C@H](C(=O)N1CCC[C@H]1Cc1c[nH]c2ncccc12)[C@@H](C)OC [D],< 100 nM
9,CC[C@H](NC)C(=O)N[C@H](C(=O)N1CC[C@H](OC)[C@H]1Cc1c[nH]c2cc(F)ccc12)[C@@H](C)OC [D′],> 10000 nM
10,CC[C@H](NC)C(=O)N[C@H](C(=O)N1CC[C@@H](O)[C@H]1Cc1c[nH]c2ccccc12)[C@@H](C)O [EE′],< 100 nM
11,CN[C@@H](C)C(=O)N[C@H](C(=O)N1CCC[C@H]1Cc1c[nH]c2ncccc12)C(C)(C)C [E],< 100 nM
12,CN[C@@H](C)C(=O)N[C@H](C(=O)N1CC[C@@H](O)[C@H]1Cc1c[nH]c2ccccc12)[C@@H](C)O [FF′],< 100 nM
13,CCN[C@@H](C)C(=O)N[C@H](C(=O)N1CC[C@H](OC)[C@H]1Cc1c[nH]c2ncccc12)C(C)(C)C [GG],1000 to 10000 nM
14,CCN[C@@H](CC)C(=O)N[C@H](C(=O)N1CCC[C@H]1Cc1c[nH]c2ncccc12)[C@@H](C)OC [G],< 100 nM
15,CCN[C@@H](C)C(=O)N[C@H](C(=O)N1CC[C@H](OC)[C@H]1Cc1c[nH]c2cc(F)ccc12)[C@@H](C)OC [G′],> 10000 nM
16,CCN[C@@H](C)C(=O)N[C@H](C(=O)N1CC[C@H](OC)[C@H]1Cc1c[nH]c2ncccc12)[C@@H](C)OC [HH],1000 to 10000 nM
17,CC[C@H](NC)C(=O)N[C@H](C(=O)N1CC[C@@H](O)[C@H]1Cc1c[nH]c2ccccc12)[C@@H](C)OC [HH′],< 100 nM
18,CCN[C@@H](C)C(=O)N[C@H](C(=O)N1CCC[C@H]1Cc1c[nH]c2ncccc12)[C@@H](C)OC [H],< 100 nM
19,CN[C@@H](C)C(=O)N[C@H](C(=O)N1CC[C@H](OC)[C@H]1Cc1c[nH]c2cc(F)ccc12)C(C)(C)C [H′],> 10000 nM
20,CCN[C@@H](C)C(=O)N[C@H](C(=O)N1CC[C@H](OC)[C@H]1Cc1c[nH]c2ncccc12)C(C)C [II],1000 to 10000 nM
21,CN[C@@H](C)C(=O)N[C@H](C(=O)N1CC[C@@H](O)[C@H]1Cc1c[nH]c2ccccc12)[C@@H](C)OC [II′],< 100 nM
22,CCNCC(=O)N[C@H](C(=O)N1CCC[C@H]1Cc1c[nH]c2ncccc12)[C@@H](C)OC [I],> 100 nM
23,"CN[C@@H](C)C(=O)N[C@H](C(=O)N1CC[C@H](C)[C@H]1Cc1c[nH]c2cc(F)ccc12)[C@@H](C)OC [JJ, N-{1-{1-2-(6-fluoro-1H-indol-3-ylmethyl)-3-methyl-pyrrolidine-1-carbonyl]-2-methoxy-propyl}-2-methylamino-propionamide]",> 100 nM
24,CN[C@@H](C)C(=O)N[C@H](C(=O)N1CC[C@@H](O)[C@H]1Cc1c(-c2ccc(F)cc2)[nH]c2ccccc12)C1CCCCC1 [KKK],> 100 nM

# From patent US20110288116A1, “IAP INHIBITORS” (TETRALOGIC PHARMACEUITCAL CORPORATION, priority 2008, published 2011)
